pKi: −log10 of the molar value.

The text below walks through data of ChEMBL document CHEMBL1147192, “New GABA-modulating 1,2,4-oxadiazole derivatives and their anticonvulsant activity” (Eur J Med Chem, 2007).

The nature of series [1]: Potentiation of GABA-induced current in rat cortical neurons at 100 uM by whole-cell patch clamp technique. The format is functional.
The species entered for series [2] is Rattus norvegicus. The settings on record: Membrane, 10 uM.
Series [3] is described as follows: Inhibition of voltage dependent sodium current in rat cortical neurons at 100 uM by whole-cell patch clamp technique. The format is functional.
Series [4] has as its system Rattus norvegicus. Put plainly: Anticonvulsant activity in orally dosed Wistar rat after 2 hrs by PTZ test. In kind it is functional. The settings on record: po.
Series [5] relates to Rattus norvegicus. The experiment in a line: Neurotoxicity in orally dosed Wistar rat after 2 hrs by RotoRod test. In kind it is toxicity, organism-based. The settings on record: in vivo, po.
Series [6] concerns Rattus norvegicus. The experiment in a line: Anticonvulsant activity in orally dosed Wistar rat after 4 hrs by MES test. In kind it is functional. The following applies: po.
The nature of series [7]: Potentiation of GABA-induced current in rat cortical neurons at 10 uM by whole-cell patch clamp technique. The format is functional.
The test system of series [8] is Rattus norvegicus. The experiment in a line: Anticonvulsant activity in orally dosed Wistar rat after 0.5 hr by PTZ test. The format is functional. The following applies: po.
Series [9] relates to Rattus norvegicus. Put plainly: Neurotoxicity in orally dosed Wistar rat after 1 hr by RotoRod test. The format is toxicity, organism-based. The settings on record: in vivo, po.
Series [10] relates to Rattus norvegicus. The experiment in a line: Anticonvulsant activity in orally dosed Wistar rat after 1 hr by PTZ test. The following applies: po. In kind it is functional.
Series [11] deals with Rattus norvegicus. Put plainly: Neurotoxicity in orally dosed Wistar rat after 0.5 hrs by RotoRod test. The settings on record: in vivo, po. The format is toxicity, organism-based.
Series [12] is described as follows: Displacement of [3H]flunitrazepam from benzodiazepine receptor in rat neuronal membranes at 10 uM.
Series [13] relates to Rattus norvegicus. The experiment in a line: Anticonvulsant activity in orally dosed Wistar rat after 2 hrs by MES test. In kind it is functional. The settings on record: po.
For series [14], the system named is Rattus norvegicus. The experiment in a line: Neurotoxicity in orally dosed Wistar rat after 4 hrs by RotoRod test. In kind it is toxicity, organism-based. The settings on record: in vivo, po.
The subject of series [15] is Rattus norvegicus. The experiment in a line: Anticonvulsant activity in orally dosed Wistar rat after 0.3 hrs by PTZ test. The format is functional. The following applies: po.
Series [16] deals with Rattus norvegicus. The experiment in a line: Anticonvulsant activity in orally dosed Wistar rat after 1 hr by MES test. In kind it is functional. The following applies: po.
The nature of series [17]: Inhibition of voltage dependent sodium current in rat cortical neurons at 10 uM by whole-cell patch clamp technique. In kind it is functional.
For series [18], the system named is Rattus norvegicus. The experiment in a line: Anticonvulsant activity in orally dosed Wistar rat after 0.5 hrs by MES test. The format is functional. The following applies: po.
For series [19], the system named is Rattus norvegicus. The experiment in a line: Anticonvulsant activity in orally dosed Wistar rat after 3 hrs by PTZ test. The format is functional. The following applies: po.

On to `c1ccc(-c2noc(Cn3cncn3)n2)cc1`, for which the Activity in [1] amounted to 286%. The inhibition in [2] is 2.7%. In addition, in [3], the inhibition at 100 µM was 8%. For the same molecule, the results for the ED50 in series [4], in series [5] and in series [6] were 37 mg/kg, 77 mg/kg and 13.1 mg/kg, respectively.
In the case of `Cc1cccc(-c2noc(Cn3cncn3)n2)c1`, the Activity amounted to 387% in series [1] and 110% in series [7]. Also, in series [2], the inhibition is -1.1%. Moreover, in series [3], the inhibition at 100 µM was 22%. The median effective dose (ED50) in series [8] was determined as 95.9 mg/kg; in series [9], 219 mg/kg.
For `Clc1ccc(-c2nc(Cn3cncn3)no2)cc1`, the ED50 in series [10] was > 100 mg/kg.
On to `Fc1cccc(-c2nc(Cn3cncn3)no2)c1`, for which the median effective dose (ED50) in series [10] was 73.9 mg/kg; in series [11] it was < 250 mg/kg.
In [12], `CN1C(=O)CN=C(c2ccccc2)c2cc(Cl)ccc21` [DIAZEPAM] showed a negative-log Ki (pKi) of 8.17. Further, the Activity in [7] amounted to 216%. Besides, in series [2], the inhibition is > 99%.
Take `Fc1ccccc1-c1noc(Cn2cncn2)n1`: the Activity in [1] was found to be 191%. Also, the inhibition in [2] was determined as 2.2%. Further, the figures for the ED50 in series [13], in [4] and in series [5] were 44.3 mg/kg, < 50 mg/kg and < 250 mg/kg, respectively.
On to `Fc1ccc(-c2nc(Cn3cncn3)no2)cc1`, for which the median effective dose (ED50) in series [14] was < 150 mg/kg; in series [15], 15.2 mg/kg.
On to `c1ccc(-c2nc(Cn3cncn3)no2)cc1`, for which the Activity is recorded as 210% in series [1] and 131% in series [7]. In addition, the inhibition in series [2] is -3.1%. The median effective dose (ED50) in series [10] is 25.5 mg/kg; in series [16], 14.6 mg/kg; in series [9], 335 mg/kg. In [3], the inhibition at 100 µM was found to be 9%.
As for `Fc1cccc(-c2noc(Cn3cncn3)n2)c1`, the Activity in series [1] is listed as 212%. For the same molecule, the inhibition in series [2] is -1.6%. The 50% effective dose (ED50) in series [10] worked out at 39.2 mg/kg; in series [16], 26.2 mg/kg; in series [9] it was 128 mg/kg. Further, the inhibition at 100 µM in [3] was found to be 12%.
Consider `c1ccc(-c2noc(Cn3ccnc3)n2)cc1`, for which, in series [17], the inhibition at 10 µM amounted to 30%. Further, in [1], the Activity was determined as 134%. In addition, the inhibition in series [2] was found to be 0.6%. Besides, in series [13], the 50% effect level (ED50) was put at a dose of 5.8 mg/kg. Also, the inhibition at 100 µM in series [3] worked out at 83%.
Take `Cc1cccc(-c2nc(Cn3cncn3)no2)c1`: the ED50 in series [18] was < 50 mg/kg; in series [19], > 50 mg/kg; in series [11], > 50 mg/kg.
As to `Clc1ccc(-c2noc(Cn3cncn3)n2)cc1`, the Activity in series [1] is 553%; in [7] it was 141%. Moreover, the 50% effective dose (ED50) in series [18] is 47.2 mg/kg; in series [4] it was 29.5 mg/kg; in [16], 21.8 mg/kg; in series [9], < 100 mg/kg. Moreover, in series [2], the inhibition was -8%. Moreover, the inhibition at 100 µM in series [3] was 31%.
Take `Clc1ccc(-c2noc(Cn3ccnc3)n2)cc1`: the results for the Activity in series [1] and in series [7] were 298% and 103%, respectively. Further, the inhibition in series [2] was 0.2%. Further, in series [3], the inhibition at 100 µM was 72%. Also, the ED50 in series [9] is > 500 mg/kg.
Regarding `Cc1ccc(-c2noc(Cn3cncn3)n2)cc1`, the ED50 in series [13] was > 70 mg/kg; in series [10], 76.5 mg/kg; in [9], 171 mg/kg.
